# Assay results reported in patent US20250009740A1, “METHODS AND COMPOSITIONS FOR TARGETING ALTERNATIVE METABOLISM ALONG WITH FLT3 INHIBITOR-MEDIATED ANTILEUKEMIC ACTIONS” (Ohio State Innovation Foundation, priority 2021, published 2025).
# Assays:
# [1] = tested on: MOLM-13 luciferase cells; test: MOLM-13-Luc+ FLT3-ITD AML xenograft in NCG mice; assay type: in vivo, mouse; settings: 10 mg/kg dinaciclib weekly i.p., 30 mg/kg gilteritinib daily oral gavage, or both; vehicle 24 days
# Method: (A) NCG mice were engrafted with MOLM-13 cells expressing luciferase and treated with vehicle, 10 mg/kg dinaciclib weekly, 30 mg/kg gilteritinib daily, or dinaciclib/gilteritinib combination.
# Animal Studies All animal studies were carried out under protocols approved by The Ohio State University Institutional Animal Care and Use Committee (IACUC). 1×10^5 MOLM-13 luciferase cells were injected via tail vein into male NOD-Prkdc^em26Cd52Il2rg^em26Cd22/NjuCrl (NCG) from the Charles River Laboratory. On day 4 post-engraftment, mice were randomized to treatment arms. Mice received the following drugs and doses: weekly intraperitoneal injections of 10 mg/kg dinaciclib (MedChemExpress HY-10492) in 20% cyclodextrin (CTD THPB-P) diluted just prior to injection, daily oral gavage of 30 mg/kg gilteritinib (MedChemExpress HY-1432) in 6% drug w/w gelucire 44/14 (Gattefosse, France) aliquoted and mixed with drug weekly, oral gavage of vehicle control (gelucire 44/14), or combination therapy at single-agent regimens.
# [2] = tested on: MV4-11 cells; test: Pairwise dose combination synergy, MTS cell viability, HSA analysis; assay type: cell-based
# Method: (§1) For dinaciclib, cells were treated for 2 hours with the drug before it was washed off and all other drugs were incubated with cells for 48-96 hours. Cell viability was measured with MTS. HSA analysis was used to determine regions of synergy. […] MOLM-13 and MV4-11 cells were treated with vehicle, 50 nM or 100 nM brequinar in combination with vehicle, 4 nM or 8 nM gilteritinib for 96 hours before cells were fixed and permeabilized for intracellular BV421-Ki67 staining and flow cytometry analysis. […] Primary cells were treated with vehicle, single agents or drug combination before cell apoptosis was measured with Annexin V/PI staining. Results are shown as mean±SEM of 3 biological replicates. […] Bone marrow cells from 3 FLT3-ITD patients, 2 FLT3-WT patients and 2 healthy donors were seeded into Methocult at 50,000 cells per condition with vehicle, single agents or drug combinations. The numbers of colonies were quantified for 1st and 2nd platings after 14 days post seeding. Results are shown as means of 2 biological replicates. * p<0.05 in comparison with EPZ015666, dinaciclib or brequinar alone.
# (§2) Next, it was determined whether pharmacologic inhibition of CDK9, DHODH or PRMT5, using commercially available inhibitors (brequinar for DHODH, dinaciclib for CDK1/2/5/9, and EPZ015666 for PRMT5) is synergistic with gilteritinib in AML cells.
# [3] = tested on: MOLM-13 cells; test: as above; assay type: cell-based, human
# Method: as §1, §2
# [4] = tested on: MOLM-13 cells; test: Proliferation assay of FLT3 inhibitor with telaglenastat, HSA analysis; assay type: cell-based, human; settings: MOLM-13, 48 hours
# Method: Proliferation assay of a range of doses of midostaurin or gilteritinib with telaglenstat on MOLM-13 cells treated for 48 hours. Highest single agent (HSA) analysis was used to determine regions of synergy.
# FLT3-ITD inhibition reduces glutaminolysis by blocking glutamine influx through SLC1A5, the primary glutamine transporter^15,16. SLC38A2 can serve as a redundant glutamine transporter to compensate the deficiency of SLC1A5^17.
# [5] = tested on: shRNA-stable MOLM-13 cells; test: Annexin V/PI flow cytometry of shRNA-stable cells treated with gilteritinib; assay type: cell-based, human; settings: 8 nM gilteritinib, 120 hours
# Method: (A-D) Knockdown efficiency of selected targets by shRNA as detected by qPCR and Western blotting; GAPDH or β-actin serves as loading control. N=2. *p<0.05; **p<0.01; (E-H) Dose-response curves of shCDK9, shDHODH, shPRMT5 and shCDK7-stable MOLM-13 cells in response to 120-hour gilteritinib treatment. Cell viability was measured with MTS. Results are shown as mean±SEM of 4 technical replicates and 3-4 biological replicates. ***p-value<0.0001; ns=not significant. I) Knockdown of CDK9, PRMT5 or DHODH but not CDK7 with shRNA increases the frequency of apoptotic AML cell lines with gilteritinib. Parental, scrambled or gene-targeting shRNA-stable MOLM-13 cells were treated with 8 nM gileritinib for 120 hours and stained with Annexin V/PI for flow cytometry analysis. Data are shown as mean±SEM of % population from triplicates.
# DHODH, CDK9 and PRMT5 genes were selected for validation, in light of their strong synergistic interactions with gilteritinib and availability of clinical grade inhibitors. MOLM-13 cells were transduced with shRNA targeting each of these genes and knockdown efficiencies were confirmed via qPCR and Western Blotting (FIG. 2A-D). Scrambled or gene-targeting shRNA transduced cells were treated with gilteritinib (2-25 nM dose range) for 120 hours followed by MTS analysis to quantify cell proliferation.
# [6] = gilteritinib paired with dinaciclib or EPZ015666
# [7] = gilteritinib paired with dinaciclib or EPZ015666, dinaciclib 2 hours then washed off, others 48-96 hours
structure (smiles),measurement,setting,value
CCc1cnn2c(NCc3ccc[n+]([O-])c3)cc(N3CCCC[C@H]3CCO)nc12 [dinaciclib],mean survival time,[1],27.5 days
same,maximum synergy (drug concentration),[2]; [6],0.0075 to 0.01 nM
same,synergy range (drug concentration),[3]; [7],0.0075 to 0.01 nM
O=C(Cc1cccc(OC(F)(F)F)c1)Nc1ccc(CCCCc2nnc(NC(=O)Cc3ccccn3)s2)nn1 [telaglenastat],cytotoxic effect in combination with gilteritinib,[4],synergistic cytotoxic effect
same,cytotoxic effect in combination with midostaurin,[4],synergistic cytotoxic effect
O=C(NC[C@H](O)CN1CCc2ccccc2C1)c1cc(NC2COC2)ncn1 [EPZ015666],maximum synergy (drug concentration),[2]; in combination with 0.1-8 nM gilteritinib,3000 to 100000 nM
same,synergy range (drug concentration),[3]; in combination with 2-10 nM gilteritinib,1000 to 100000 nM
CCc1nc(C(N)=O)c(Nc2ccc(N3CCC(N4CCN(C)CC4)CC3)c(OC)c2)nc1NC1CCOCC1 [gilteritinib],increase of necroptotic/apoptotic cells vs scrambled control,[5]; knockdown of CDK9,9 fold
same,increase of necroptotic/apoptotic cells vs scrambled control,[5]; knockdown of DHODH,5 fold
same,increase of necroptotic/apoptotic cells vs scrambled control,[5]; knockdown of PRMT5,2.6 fold
same,mean survival time,[1],39 days
same,maximum synergy (drug concentration),[2]; [6],0.1 to 8 nM
same,synergy range (drug concentration),[3]; [7],2 to 10 nM
